From US5958719A, “Method for the determination of the activity of specific phosphotyrosine phosphatases and specific effectors thereof in intact cells” (Max-Planck Gesellschaft Zur Foderung der Wissenschaften E.V., priority 1995, dated 1999)
“Also recorded” adds a separate entry of the source.

Assays:
PDGF receptor PTK = test: Inhibition of PDGF receptor PTK (PDGF-induced receptor autophosphorylation, anti-phosphotyrosine immunoblot) in Swiss 3T3 cells; format: cell-based, mouse; details: AG1296 50 μM, 2 min preincubation, then PDGF-BB 100 ng/ml 5 min
Source text: (§1) Swiss 3T3 fibroblasts (mouse) express PDGFα and PDGFβ receptors on the cell surface (Hosang et al. (1989)). Stimulation of the cells with PDGF leads to a rapid autophosphorylation of these receptors at tyrosine residues. This autophosphorylation can be detected in immunoblots using anti-phosphotyrosine antibodies after immunoprecipitation of the receptors and can be detected in unfractionated cell lysates. The autophosphorylated receptors are rapidly dephosphorylated by PDGF receptor-directed PTPase(s) (Bohmer et al. (1993)). The identity of the cellular PTPases which catalyse this reaction is not known. […] If the inhibitor is added to cells after activation of the PDGF receptor PTK, the dephosphorylation of the PDGF receptor can be monitored over time. (FIG. 3).
Confluent, resting Swiss 3T3 cells were incubated as stated for various periods in serum-free cell culture medium without supplements (lanes 1, 2) or with the PDGF receptor PTK inhibitor AG1296 (final concentration 50 μM) (lanes 3-6). Then human recombinant PDGF-BB (final concentration 100 ng/ml) (lanes 2-6) or the corresponding solvent (lane 1) was added and the incubation was continued for 5 minutes.

[1] = tested on: PDGF receptor-directed PTPase(s); test: PDGF receptor-directed PTPase activity (dephosphorylation of autophosphorylated PDGF receptor) in isolated Swiss 3T3 cell membranes; format: biochemical, mouse; details: AG1296 50 μM, 30 min incubation, 10 mM EDTA
Source text: as §1
Isolated Swiss 3T3 cell membranes (10 μg protein per lane) were treated for 20 minutes on ice with PDGF (2 μg/ml). The activated PDGF receptor PTK was then autophosphorylated by adding 3 mM (final concentration) ATP. The kinase reaction was inhibited by addition of 10 mM EDTA. At the same time AG1296 (50 μM) (B) or the corresponding solvent (DMSO) (A) was added. The phosphotyrosine content of the PDGF receptor was measured in a similar manner to that described in FIG. 1 immediately after addition of the agents (0 min) or after 30 min incubation. […]

PDGF receptor = PDGF receptor dephosphorylation over time in intact PDGF-stimulated Swiss 3T3 cells after addition of PTK inhibitor; format: cell-based, mouse; details: AG1296 50 μM added after 5 min PDGF stimulation; intact Swiss 3T3 cells
Source text: as §1
Swiss 3T3 cells were treated in serum-free medium with PDGF (FIG. 3, lanes 2-6) or the corresponding solvent (FIG. 3, lane 1). After 5 minutes stimulation AG1296 (50 μM, FIG. 3B) or the corresponding solvent (DMSO, FIG. 3 A) was added. The phosphotyrosine content of the PDGF receptor was examined in the cells thus treated at the stated various time points. […] This decrease is caused by the activity of the PDGF receptor-directed PTPase in the intact cells.

[2] = tested on: PDGF receptor-directed PTPase(s); format: cell-based, mouse
NGF receptor PTK = details: Ohmichi et al (1992); Tapley et al (1992); cited from earlier work
NGF receptor = NGF receptor dephosphorylation over time in intact NGF-stimulated TrkA-transfected PC12 cells after addition of PTK inhibitor; format: cell-based, rat; details: K252a 1 μM added after 10 min NGF stimulation; intact PC12 cells transfected with TrkA
Source text: (§2) PC 12 cells (rat pheochromocytoma cells) which overexpress NGF receptors (Trk A) (Obermeier et al. (1994)) were used for the experiments shown. Stimulation of the cells with NGF leads to a rapid autophosphorylation of these receptors at tyrosine residues. This autophosphorylation can be detected in immunoblots using anti-phosphotyrosine antibodies after immunoprecipitation of the receptors. The identity of the cellular PTPases which dephosphorylate autophosphorylated NGF receptors is not known.
PC12 cells transfected with TrkA were treated in serum-free medium with NGF (lanes 2-6) or the corresponding solvent (lane 1). After a 10 minute stimulation, K252a (1 μM, B) or the corresponding solvent (DMSO, A) was added. At the stated various time points the cells treated correspondingly were tested as described in FIG. 1 and the phosphotyrosine content of the NGF receptors was examined. […] This decrease is caused by the activity of the NGF receptor-directed PTPase in the intact cells.

NGF receptor PTK (Trk) = test: Inhibition of NGF receptor PTK (NGF-induced TrkA autophosphorylation, immunoprecipitation and anti-phosphotyrosine immunoblot) in PC12 cells; format: cell-based, rat; details: K252a 1 μM, 2 min (short) preincubation, then NGF 150 ng/ml 10 min; PC12 cells overexpressing TrkA
Source text: as §2
PC12 cells that overexpress TrkA were incubated as stated for various periods in serum-free cell culture medium without supplements (lanes 1, 2) or with the NGF receptor PTK inhibitor K252a (final concentration 1 μM) (lanes 3-6). Then NGF (final concentration 150 ng/ml) (lanes 2-6) or the corresponding solvent (lane 1) was added and the incubation was continued for 10 minutes.

Compound: COc1cc2ncc(-c3ccccc3)nc2cc1OC [AG1296]
- inhibition of PDGF receptor PTK activity / PDGF-induced receptor autophosphorylation (PDGF receptor PTK): completely inhibits its activity; also recorded: completely suppressed
- influence on PDGF receptor-directed PTPase activity (dephosphorylation) [1]: does not influence the activity of the PTPase(s); also recorded: does not inhibit; also recorded: does not influence this dephosphorylation
- phosphotyrosine content of the PDGF receptor over time (PDGF receptor): continuously decreases

Compound: CNc1ccc2oc(CC3OC4(CCC3C)OC(C(C)C(=O)c3ccc[nH]3)C(C)CC4C)nc2c1C(=O)O (centres unmarked) [A23187]
- action on PTPases which specifically dephosphorylate the PDGF receptor [2]: activator
- Relative PDGF receptor-directed PTPase activity (% of control) ([2]; swiss 3t3 cells, 5 min, 1 µM): 161 % of control

Compound: COC(=O)C1(O)CC2OC1(C)n1c3ccccc3c3c4c(c5c6ccccc6n2c5c31)C(=O)NC4 (centres unmarked) [K252a]
- specificity of inhibition of NGF receptor PTK and PTK of other neurotrophin receptors (NGF receptor PTK): specific inhibitor of the NGF receptor PTK
- phosphotyrosine content of the NGF receptor over time (NGF receptor): very rapid dephosphorylation; also recorded: decreases significantly
- inhibition of Trk receptor PTK activity / NGF-induced receptor autophosphorylation (NGF receptor PTK (Trk)): completely inhibits the activity; also recorded: completely suppressed
